The Ki is a measure of affinity in units of concentration, obtained from inhibition or displacement.

This passage reports Ki results from patent US7514433B2, “1H-indole-6-yl-piperazin-1-yl-methanone derivatives” (Hoffmann-La Roche Inc., priority 2006, dated 2009).

SMILES strings stand for the structures. Counter-ions that a name gives are not always drawn.

The target of this assay is T1, histamine 3 receptor (H3R) (Homo sapiens, UniProt Q9Y5N1).
T1 construct: expressed in transfected cells; host or cells: CHO cells (HR3-CHO cell line), membranes
T1 sequence (Q9Y5N1 whole entry): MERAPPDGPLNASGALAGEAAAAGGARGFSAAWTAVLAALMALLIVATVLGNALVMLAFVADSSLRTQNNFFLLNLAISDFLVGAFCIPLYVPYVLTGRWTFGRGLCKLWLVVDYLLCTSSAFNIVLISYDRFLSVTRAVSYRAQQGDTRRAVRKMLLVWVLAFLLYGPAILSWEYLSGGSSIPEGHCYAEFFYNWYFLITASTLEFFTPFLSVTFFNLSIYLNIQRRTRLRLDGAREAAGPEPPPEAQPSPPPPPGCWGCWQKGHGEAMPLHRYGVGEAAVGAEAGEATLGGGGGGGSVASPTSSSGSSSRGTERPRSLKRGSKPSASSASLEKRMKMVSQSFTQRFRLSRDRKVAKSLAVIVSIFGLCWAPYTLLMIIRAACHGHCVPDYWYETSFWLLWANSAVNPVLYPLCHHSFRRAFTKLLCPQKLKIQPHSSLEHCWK
Put plainly: Binding assay with 3H-(R)α-methylhistamine (competition binding, membranes of the human HR3-CHO cell line). Conditions: competition against 3H(R)α-methylhistamine (1 nM), Ki calculated from IC50 by the Cheng-Prusoff equation. The procedure: Binding assay with ^3H-(R)α-methylhistamine
Saturation binding experiments were performed using HR3-CHO membranes prepared as described in Takahashi, K, Tokita, S., Kotani, H. (2003) J. Pharmacol. Exp. Therapeutics 307, 213-218.
An appropriate amount of membrane (60 to 80 μg protein/well) was incubated with increasing concentrations of ^3H(R)α-Methylhistamine di-hydrochloride (0.10 to 10 nM). Non specific binding was determined using a 200 fold excess of cold (R)α-Methylhistamine dihydrobromide (500 nM final concentration). The incubation was carried out at room temperature (in deep-well plates shaking for three hours). The final volume in each well was 250 μl. The incubation was followed by rapid filtration on GF/B filters (pre-soaked with 100 μl of 0.5% PEI in Tris 50 mM shaking at 200 rpm for two hours). The filtration was made using a cell-harvester and the filter plates were then washed five times with ice cold washing buffer containing 0.5 M NaCl. After harvesting, the plates were dried at 55° C. for 60 min, then we added scintillation fluid (Microscint 40, 40 microl in each well) and the amount of radioactivity on the filter was determined in Packard top-counter after shaking the plates for two hours at 200 rpm at room temperature.
Binding Buffer: 50 mM Tris-HCl pH 7.4 and 5 mM MgCl2×6H2O pH 7.4.
Washing Buffer: 50 mM Tris-HCl pH 7.4 and 5 mM MgCl2×6H2O and 0.5 M NaCl pH 7.4.
Indirect measurement of affinity of H3R inverse agonists: twelve increasing concentrations (ranging from 10 μM to 0.3 nM) of the selected compounds were always tested in competition binding experiments using membrane of the human HR3-CHO cell line. […]
All compounds were tested at a single concentration in duplicate. […] Ki's were calculated from IC50 based on Cheng-Prusoff equation (Cheng, Y, Prusoff, W H (1973) Biochem Pharmacol 22, 3099-3108): Ki=IC50/[1+D/Kd] wherein D is the concentration of the radioligand and Kd is the binding constant for the radioligand binding to the receptor under the conditions used in the competition experiment.
As for `CC(C)CN1CC=C(c2cn(-c3ccc(F)cc3F)c3cc(C(=O)N4CCN(C(C)C)CC4)ccc23)CC1` [Example 54, [1-(2,4-Difluoro-phenyl)-3-(1-isobutyl-1,2,3,6-tetrahydro-pyridin-4-yl)-1H-indol-6-yl]-(4-isopropyl-piperazin-1-yl)-methanone], the inhibition constant Ki was 0.0176 µM.

In the case of `CC(C)CN1CCC(c2c[nH]c3cc(C(=O)N4CCN(C(C)C)CC4)ccc23)CC1` [Example 2, [3-(1-Isobutyl-piperidin-4-yl)-1H-indol-6-yl]-(4-isopropyl-piperazin-1-yl)-methanone; hydrochloride], the Ki was 0.0243 µM.

On to `CN1CCCC1c1c[nH]c2cc(C(=O)N3CCN(C4CCCC4)CC3)ccc12` (stereo not drawn) [Example 35, (4-Cyclopentyl-piperazin-1-yl)-[3-(1-methyl-pyrrolidin-2-yl)-1H-indol-6-yl]-methanone], for which the inhibition constant Ki was 0.0331 µM.
